These results are taken from publication PMC7760690, “Neuroprotective Metabolites from Vietnamese Marine Derived Fungi of Aspergillus and Penicillium Genera” (Marine Drugs, 2020).

The nature of one series: MTT cytotoxicity assay. The format is cell-based, murine. The conditions noted are these: mouse, Neuro-2a neuroblastoma cells; Neuro-2a cells, MTT. The protocol: (§1) The murine neuroblastoma cell line Neuro-2a was purchased from ATCC.
(§2) Neuro-2a cells were cultured in DMEM medium containing 10% fetal bovine serum (Biolot, St. Petersburg, Russia) and 1% penicillin/streptomycin (Biolot, St. Petersburg, Russia). Cells were incubated at 37 °C in a humidified atmosphere containing 5% (v/v) CO2 [71].
The in vitro cytotoxicity of the individual substances was evaluated using an MTT (3-(4,5-dimethylthiazol-2-yl)-2,5-diphenyltetrazolium bromide) assay, which was performed according to the manufacturer’s instructions (Sigma-Aldrich, USA). Absorbance of the converted formazan was measured using a Multiskan FC plate photometer (Thermo Scientific, Waltham, MA, USA) at λ = 570 nm. The results were presented as percent of control data, and concentration of cell viability inhibition on 50% (IC50) was calculated.
A general note: Formazan colour is commonly taken as a measure of viable cells.

Series [1] is described as follows: DPPH radical scavenger assay. Particulars: for EC50 / DPPH Radical Scavenging 100 µM % of MeOH: 30 min; for EC50: MeOH, read-out: DPPH Radical Scavenging EC50; for DPPH Radical Scavenging 100 µM % of MeOH: compound 100 µM, absorbance 520 nm. As to the method: The DPPH radical scavenging activities of the compounds were tested as described.
The compounds were dissolved in MeOH, and the solutions (120 µL) were dispensed into wells of a 96-well microplate. In all, 30 µL of the DPPH (Sigma-Aldrich, Steinheim, Germany) solution in MeOH (7.5 × 10^−3 M) was added to each well. The concentrations of the test compounds in the mixtures were 10 and 100 µM. The mixtures were shaken and left to stand for 30 min, and the absorbance of the resulting solutions was measured at 520 nm with a microplate reader MultiscanFC (ThermoScientific, Waltham, MA, USA). The concentration scavenging 50% of the DPPH radical (EC50) was calculated for each investigated compound.
For orientation: The DPPH test is a chemical assay of radical scavenging.

Series [2] deals with 6-OHDA-treated Neuro-2a cells. The series is described as follows: ROS level in 6-OHDA-treated cells (H2DCFDA). It is filed as cell-based, murine. As to the method: as §1, §2
(§3) The cells (1 × 10^4 cells/well of a 96-well plate) were incubated with compound solutions (10 µM) during 1 h. Then, 6-OHDA/PQ/rotenone were added to cell suspension to resulting concentration of 50 µM, 500 µM and 10 µM respectively for incubation during 1 h. Cells incubated without neurotoxins and compounds and with neurotoxins alone were used as positive and negative controls, respectively. The 20 µL of 2,7-dichlorodihydrofluorescein diacetate solution (H2DCFDA, Molecular Probes, Eugene, OR, USA) was added to each well (10 µM, final concentration) and the plate was incubated for an additional 10 min at 37 °C. The intensity of dichlorofluorescein fluorescence was measured with PHERAstar FS plate reader (BMG Labtech, Ortenberg, Germany) at λex = 485 nm and λem = 518 nm. The data were processed by MARS Data Analysis v. 3.01R2 (BMG Labtech, Germany). The results were presented as the percent of positive control data.

For series [3], the system named is rotenone-treated Neuro-2a cells. Description: ROS level in rotenone-treated cells (H2DCFDA). It is filed as cell-based, murine. As to the method: as §1, §2, §3
For series [4] the test system is unchanged. The series is described as follows: Rotenone-induced PD cell model, cell viability (MTT). It is filed as cell-based, murine. The protocol: as §1, §2
(§4) The neuroblastoma Neuro-2a line cells (1 × 10^4 cells/well) were treated with the test compounds at concentrations of 1 and/or 10 µM for 1 h, and then the neurotoxins were added to the neuroblastoma cell suspensions. Rotenone (Sigma-Aldrich, USA) was used at the concentration of 10 µM. Paraquat (Sigma-Aldrich, USA) was used at 500 µM. 6-Hydroxydopamine (Sigma-Aldrich, USA) was used at 50 µM. Cells incubated without neurotoxins and the test compounds and cells incubated with neurotoxins only were used as positive and negative controls, respectively. After 24 h of incubation, the cell viabilities were measured using the MTT method. The results are presented as the percent of positive control data.

The subject of series [5] is Neuro-2a cells treated with 6-OHDA. The series is described as follows: 6-OHDA-induced PD cell model, cell viability (MTT). The format is cell-based, murine. The conditions noted are these: compounds 6-12 at 1 µM; 6-OHDA 50 µM. The protocol: as §1, §2, §4
The conditions of series [6]: no exact data published; cited from earlier work.
Series [7] has as its system PQ-treated Neuro-2a cells. The series is described as follows: ROS level in PQ-treated cells (H2DCFDA). The format is cell-based, murine. As to the method: as §1, §2
as §3, with “The cells (1 × 10^4 cells/well of a 96-well plate) were incubated with compound solutions (10 µM) during 1 h.” left out

The test system of series [8] is PQ-treated Neuro-2a cells. The series is described as follows: Paraquat-induced PD cell model, cell viability (MTT). The format is cell-based, murine. The protocol:
as §1, §2, §4

Regarding `C=CC(C)(C)c1[nH]c2ccccc2c1C1=C(OC)C(=O)C(c2c[nH]c3ccccc23)=C(OC)C1=O` [Compound 9, asterriquinone C1], the midpoint of inhibition in “MTT cytotoxicity assay”, the IC50, lay at 42.3 ± 1.45 µM. In addition, in series [1], the concentration giving a half-maximal response (EC50) is more than 100 µM and the “DPPH Radical Scavenging 100 µM % of MeOH” value is 82.4 ± 1.7 % of MeOH.
For `C=CC(C)(C)c1[nH]c2ccccc2c1C1=C(OC)C(=O)C(c2c(C(C)(C)C=C)[nH]c3ccccc23)=C(OC)C1=O` [Compound 8, asterriquinone B4] the same measures were 91.5 ± 1.87 µM, more than 100 µM and 89.5 ± 0.9 % of MeOH.
On the same counts, the results for `COc1c2c(c(OC)c(O)c1-c1c[nH]c3ccccc13)C1(O)c3ccccc3NC1O2` (centres unmarked) [Compound 6, 3-(1H-indol-3-yl)-1,4-dimethoxy-5a,6-dihydro-10bH-benzofuro [2,3-b]indole-2,10b-diol] are more than 100 µM, more than 100 µM and 67.3 ± 3.9 % of MeOH.
In the case of `NCCc1cc(O)c(O)cc1O` [Compound 6-OHDA, 6-hydroxydopamine, reference compound], the “increase of intracellular ROS level by neurotoxin” value (from here on “increase”) in series [2] (6-OHDA 50 µM alone, 1 h) is 66%.
On to `C=C(C)[C@H]1Cc2c(ccc3c2O[C@@H]2COc4cc(OC)c(OC)cc4[C@@H]2C3=O)O1` [Rotenone, reference compound], for which the “increase” value in [3] (rotenone 10 µM alone, 1 h) was determined as 79%. The “decrease of Neuro-2a cell viability by neurotoxin” value in [4] (rotenone 10 µM alone, 24 h) is given as 48%.
In “MTT cytotoxicity assay”, `COC1=C(c2c[nH]c3ccccc23)C(=O)C(OC)=C(c2c[nH]c3ccccc23)C1=O` [Compound 11, asterriquinone D] displayed a half-maximal inhibitory concentration (IC50) of more than 100 µM. In [1], the EC50 is more than 100 µM and the “DPPH Radical Scavenging 100 µM % of MeOH” value is recorded as 85.6 ± 1.3 % of MeOH.
The compound `COC1=C(c2c[nH]c3ccccc23)C(=O)C(OC)=C(c2c[nH]c3c(CC=C(C)C)cccc23)C1=O` [Compound 10, asterriquinone C2] yielded a concentration for half-maximal inhibition (IC50) in the series “MTT cytotoxicity assay” of more than 100 µM. Also, in series [1], the 50% effective concentration (EC50) was more than 100 µM and the “DPPH Radical Scavenging 100 µM % of MeOH” value was 91.3 ± 1.1 % of MeOH.
As for `COc1cc(O)cc2c1C(=O)c1c(O)cc(C)cc1C2=O` [Compound 12, questin], the “cytoprotective activity in 6-OHDA-induced PD cell model” value in series [5] is “inactive”. In “MTT cytotoxicity assay”, the concentration for half-maximal inhibition (IC50) is more than 100 µM. In series [3] (compounds 6-12, 1 µM (method: 10 µM), rotenone 10 µM), the “influence on ROS level in rotenone-treated cells” value is “significant in vitro anti-ROS activity”. Also, in series [1], the EC50 was more than 100 µM and the “DPPH Radical Scavenging 100 µM % of MeOH” value is recorded as 87.7 ± 2.4 % of MeOH. Also, the “radical scavenging activity in cell-free assay” value in [1] (DPPH, up to 100 µM) was “did not show any significant DPPH radical scavenging”. The DPPH-radical scavenging activity entry in [6] is given as “DPPH-radical scavenging activity has been reported”. For the same compound, the “influence on ROS level in 6-OHDA-treated cells” value in [2] (compounds 6-12, 1 µM (method: 10 µM), 6-OHDA 50 µM) is “significant in vitro anti-ROS activity”. In series [4] (compounds 6-12 at 1 µM, rotenone 10 µM), the “cytoprotective activity in rotenone-induced PD cell model” value is reported as “moderate cytoprotective activity”. For the same compound, in series [7] (compounds 6-12, 1 µM (method: 10 µM), PQ 500 µM), the “influence on ROS level in PQ-treated cells” value is reported as “significant in vitro anti-ROS activity”. Further, the “cytoprotective activity in PQ-induced PD cell model” value in series [8] (compounds 6-12 at 1 µM, paraquat 500 µM) is “inactive”.
Take `C[n+]1ccc(-c2cc[n+](C)cc2)cc1` [PQ, paraquat, reference compound]: in series [7] (PQ 500 µM alone, 1 h), the “increase” value came to 48%. Further, the “decrease of Neuro-2a cell viability by neurotoxin” value in [8] (paraquat 500 µM alone, 24 h) came out at 44%.
For `C=CC(C)(C)c1[nH]c2ccccc2c1C1=C(OC)C(=O)C(c2cn(C(C)(C)C=C)c3ccccc23)=C(OC)C1=O` [Compound 7, Asterriquinone A3], the “cytoprotective activity in 6-OHDA-induced PD cell model” value in series [5] is on record as “weak cytoprotective activity”. For the same compound, the 50% inhibitory concentration (IC50) in the series “MTT cytotoxicity assay” was more than 100 µM. For the same compound, in series [1], the EC50 is more than 100 µM and the “DPPH Radical Scavenging 100 µM % of MeOH” value was 88.9 ± 1.6 % of MeOH.

One may read the IC50 as the concentration needed to halve the response being measured. Higher therefore signals weaker potency. One may read the EC50 as the concentration giving half of the maximal effect.
